ChEMBL document CHEMBL1136585, “Inhibition of inosine monophosphate dehydrogenase (IMPDH) by 2-[2-(Z)-fluorovinyl]inosine 5'-monophosphate” (Bioorg Med Chem Lett, 2003)

Columns and labels:
[1] = molecular target: Inosine-5'-monophosphate dehydrogenase (Escherichia coli); test: Inhibition of IMPDH (Inosine 5''-monophosphate dehydrogenase)from Escherichia coli B3 cells
[2] = test system: Inosine-5'-monophosphate dehydrogenase (Escherichia coli); test: as above; remark: listed apart in the source

Ki [1] [µM]	K inact [2] [s⁻¹]	SMILES
62	–	O=P(O)(O)OC[C@H]1O[C@@H](n2cnc3c(Cl)ncnc32)[C@H](O)[C@@H]1O
1.11	0.0269	O=P(O)(O)OC[C@H]1OC(n2cnc3c(O)nc(/C=C/F)nc32)[C@H](O)C1O (single isomer, unassigned)
